# Assay results published in patent US8288548B2, “Oxazolo[5-4-b]pyridin-5-yl compounds” (Eli Lilly and Company, priority 2010, dated 2012).
# Values joined by “and” are separate entries in the source; they are usually repeats but may differ in a detail not shown here. Equal values may be shown once.
# Test system: p38 MAP kinase
# Experiment: In vivo target inhibition (IVTI) of p38 MAP kinase in naïve C57BL/6 mice (p-MAPKAPK2 in PBMCs, flow cytometry)
# Conditions: 2 hours post-dose
# Method: IVTI of p38 MAP kinase is measured in peripheral blood mononuclear cells (PBMCs) of mice dosed orally with test compound using a flow cytometry assay for p-MAPKAPK2, a p38 MAP kinase substrate.
# Male C57BL/6 mice (6-8 weeks old) are randomized into groups of 4. Test compound is administered by oral gavage in a 0.1 mL volume of vehicle (1% hydroxyethyl cellulose (HEC), 0.25% TWEEN® 80, 0.05% antifoam). Control animals are administered 0.1 mL vehicle with no test compound. For single dose and dose response studies, animals are sacrificed 2 hour post-dose. For time-course studies, animals are sacrificed at different time-points post-dose, typically, 1, 2, 4, 6, 18 and 24 hours. Whole blood is collected in EDTA-coated tubes (AQUISEL).
# 100 μL mouse whole blood is added into each EDTA tube and incubated at 37° C. for 10 minutes. […]
# Samples are incubated at RT for 30 minutes. […] Samples are analyzed by flow cytometry (FACScaliber, BD). After defining the viable single cell population by side and forward scatter, the level of p-MAPKAPK2 is measured in the monocyte population defined (gated) by CD11b^hiLy6G^−.
# The median fluorescence intensity in the monocyte cells is analyzed to determine the level of p-MAPKAPK2. […] Percent inhibition by test compound is determined by using the following equation: […]
compound,measurement,setting,value
"COCC[C@H](C)Nc1nc2ccc(-c3nc(C(C)(C)CO)[nH]c3-c3ccc(F)cc3F)nc2o1 [Example 1, 2-[5-(2,4-Difluorophenyl)-4-[2-[[(1S)-3-methoxy-1-methyl-propyl]amino]oxazolo[5,4-b]pyridin-5-yl]-1H-imidazol-2-yl]-2-methyl-propan-1-ol]",Threshold Efficacious Dose for 70% inhibition (TED70),"oral, PBMCs",5.1 mg/kg
same,Threshold Efficacious Concentration for 70% inhibition (TEC70),plasma,39.4 ng/mL and 0.084 μM
